From patent publication US5830433A, “Radiolabeled growth hormone secretagogue” (Merck & Co., Inc., priority 1996, dated 1998)

Assay: storage stability of the radioligand in solution
Format: physicochemical
Conditions: trace hcl; stored at -20° C. as a solution in 15% methanol/water containing a trace of hydrochloric acid; read-out: stability, loss of radiochemical purity

degraded at 730 h: < 0.5%
Structure (SMILES): CC(C)(N)C(=O)N[C@H](COCc1ccccc1)C(=O)N1CCC2(CC1)CN([35S](C)(=O)=O)c1ccccc12 [[^35 S]-radioligand, [^35 S]N-[1(R)-[(1,2-Dihydro-1-methanesulfonylspiro[3H-indole-3,4'-piperdin]-1'-yl)carbonyl]-2-(phenylmethyloxy)ethyl]-2-amino-2-methylpropanamide]
